For this data set the following is noted: for Glass transition temperature: DTA; for vapor or sublimation pressure: Liquid, Closed cell (Static) method.

We go through 5 compounds from the NIST ThermoML archive (doi:10.1021/je100839v).

Each structure is given as a SMILES string. ± gives the expanded uncertainty stated by the source.

For `CCCCn1cc[n+](C)c1.[I-]` [1-butyl-3-methylimidazolium iodide], the Glass transition temperature was -62.0 ± 3 °C.

As to `CCCCn1cc[n+](C)c1.F[B-](F)(F)F` [1-butyl-3-methylimidazolium tetrafluoroborate], the Glass transition temperature is -85.0 ± 3 °C.

Take `CCCCn1cc[n+](C)c1.N#C[S-]` [1-butyl-3-methylimidazolium thiocyanate]: the Glass transition temperature is -89.0 ± 3 °C.

In the case of `CCOS(=O)(=O)[O-].CCn1cc[n+](C)c1` [1-ethyl-3-methylimidazolium ethyl sulfate], the Glass transition temperature is -86.0 ± 3 °C.

With `O` [water], the vapor or sublimation pressure (in general, the pressure of vapour in equilibrium with the condensed phase) runs as follows: (313.85 K) 8.1 ± 3.1 kPa; (318.65 K) 10.4 ± 3.2 kPa; (323.45 K) 13.2 ± 3.3 kPa; (328.35 K) 16.5 ± 3.3 kPa; (333.35 K) 20.1 ± 3.5 kPa; (338.15 K) 24.9 ± 3.7 kPa. Besides, the “vapor or sublimation pressure” value (343.05 K) amounted to 30.6 ± 3.8 kPa.
